Source: article PMC6361841, “Repurposing of Drugs as Novel Influenza Inhibitors From Clinical Gene Expression Infection Signatures” (Frontiers in Immunology, 2019)
Where two headings read alike, the source gives them in different places.

Legend:
[1] = system: A/Lyon/969/09 (H1N1)pdm09 virus; test: microbe, parasite or virus in culture; assay type: cell-based, influenza A(H1N1)pdm09 virus; conditions: Influenza A virus, H1N1, 48 h; pre-treatment/treatment in vitro; A549; […]; read-out: EC50
A/Texas/126/2016 (H3N2) = test: Antiviral efficacy in A549 cells, H3N2 strain; assay type: cell-based, influenza virus
B/Massachusetts/2/2106 = test: Antiviral efficacy in A549 cells, B strain; assay type: cell-based, influenza virus
A(H1N1)pdm09 virus = assay type: cell-based, influenza virus
[2] = system: influenza A/Quebec/144147/09 (H1N1)pdm09 virus; assay type: in vivo, C57BL/6N mice
[3] = system: influenza A/Quebec/144147/09 (H1N1)pdm09 virus; assay type: in vivo, C57BL/6N mice; remark: listed apart in the source
[4] = system: influenza A/Lyon/969/09 (H1N1)pdm09 virus; assay type: cell-based
[5] = system: MucilAir® human airway epithelium; assay type: cell-based
[6] = system: MucilAir® human airway epithelia (HAE); test: LDH cytotoxicity in HAE; conditions: oseltamivir 1 μM, diltiazem 90 μM, combinations
[7] = […], oseltamivir 10 mg/kg/day, diltiazem 90 mg/kg/day
[8] = 24 h p.i., oseltamivir 0.1 µM, diltiazem 9 µM or both
[9] = 48 h p.i., oseltamivir 0.1 µM, diltiazem 9 µM or both
[10] = 72 h p.i., oseltamivir 0.1 µM, diltiazem 9 µM or both
[11] = 96 h p.i., oseltamivir 0.1 µM, diltiazem 9 µM or both
[12] = oseltamivir 1 μM, diltiazem 90 μM

Structure (SMILES): COc1ccc([C@@H]2Sc3ccccc3N(CCN(C)C)C(=O)[C@@H]2OC(C)=O)cc1 [Diltiazem]
- EC50 [1]: 0.84 nM
- Relative Viral production (A/Texas/126/2016 (H3N2); dose CMAP): 7.9 % of mock-treated
- Viral titer (A/Texas/126/2016 (H3N2); dose CMAP): 4.92 log TCID50/ml
- Relative Viral production (A/Texas/126/2016 (H3N2); dose CMAP/10): 12.75 % of mock-treated
- Viral titer (A/Texas/126/2016 (H3N2); dose CMAP/10): 5.13 log TCID50/ml
- Relative Viral production (B/Massachusetts/2/2106; dose CMAP): 4.7 % of mock-treated
- Viral titer (B/Massachusetts/2/2106; dose CMAP): 3.97 log TCID50/ml
- Relative Viral production (B/Massachusetts/2/2106; dose CMAP/10): 10.0 % of mock-treated
- Viral titer (B/Massachusetts/2/2106; dose CMAP/10): 4.3 log TCID50/ml
- Effect of virus pre-incubation on final viral titers vs PBS-incubated controls (A(H1N1)pdm09 virus; pre-incubation before infection): did not affect final viral titers
- Viral titer, Dilution #2 (A(H1N1)pdm09 virus; virus 10^5 TCID50/mL pre-incubated 1 h, diltiazem 9 µM, etilefrine 18 µM, oseltamivir 1 µM): 4.63 log TCID50/ml
- Viral titer, Dilution #1 (A(H1N1)pdm09 virus; virus 10^6 TCID50/mL pre-incubated 1 h, diltiazem 9 µM, etilefrine 18 µM, oseltamivir 1 µM): 5.63 log TCID50/ml
- Mean relative Viral production (A(H1N1)pdm09 virus; virus pre-incubated 1 h, relative to PBS control): 156.9 % of mock-treated
- Clinical benefit in terms of survival vs saline (placebo) group ([2]; […], mg/kg/day: oseltamivir 10, monensin 10, diltiazem 90, etilefrine 3, lanatoside C 100, prednisolone 5, flucytosine 240, felbinac 5, timolol 50): significantly improved survival
- Weight loss vs saline (placebo) group ([2]; […], oseltamivir 10, diltiazem 90, etilefrine 3 mg/kg/day): significantly improved
- Reduction in lung viral titers (LVTs) on day 5 p.i. ([2]; mouse, in vivo): at least 1 log
- Hazard ratio (HR) for the saline group compared to treatment group (CI95) ([3]; […], diltiazem 45 mg/kg): 7.62 (1.49–38.96)
- Mice rescued from death ([3]; […], half-dose diltiazem 45 mg/kg): 30%
- Survival ([3]; […], mg/kg/day: oseltamivir 10, monensin 10, diltiazem 90, etilefrine 3): completely prevented mortality
- Hazard ratio (HR) for the saline group compared to treatment group (CI95) [3, 7]: 2.85 (0.56–14.47)
- Mice rescued from death [3, 7]: 20%
- Weight loss ([3]; […], oseltamivir 10, monensin 10, diltiazem 90 mg/kg/day): reduced weight loss
- Mean weight loss ([3]; mouse, in vivo): significant improvement
- Apical viral titer log TCID50/ml (CI95) [4, 8]: 6.47 (5.03 – 7.90) log TCID50/ml
- Apical viral titer log TCID50/ml (CI95) [4, 9]: 8.91 (8.67 – 9.16) log TCID50/ml
- Apical viral titer log TCID50/ml (CI95) [4, 10]: 8.21 (7.28 – 9.14) log TCID50/ml
- Apical viral titer log TCID50/ml (CI95) [4, 11]: 7.32 (6.43 – 8.22) log TCID50/ml
- Apical viral titer log TCID50/ml (CI95) ([4]; 96 h p.i., oseltamivir 1 µM, diltiazem 90 µM or both): 7.37 (5.97 – 8.76) log TCID50/ml
- Effect on viral replication vs untreated control ([4]; oseltamivir 0.1 μM, diltiazem 9 μM (CMAP) or both, from 5 h p.i., once daily 5 days): no significant advantage over the untreated control
- Reduction in apical viral titers at 48 h p.i. compared to the untreated control [4, 12]: > 3 log
- Virus on the basolateral medium [4, 12]: No virus was detected
- Delay of the peak of viral production ([4]; oseltamivir 1 μM, diltiazem 90 μM (10-fold CMAP)): 24 h
- Reduction in apical peak viral titers compared to the untreated control ([4]; oseltamivir 1 μM, diltiazem 90 μM or both, 48 h p.i. untreated vs. 72 h p.i. treated): > 2 log
- Δ TEER (CI95) [5, 8]: 35.10 (10.96 – 59.23) Ohm/cm^2
- Δ TEER (CI95) ([5]; 24 h p.i., oseltamivir 1 µM, diltiazem 90 µM or both): 86.13 (3.72 – 168.5) Ohm/cm^2
- Δ TEER (CI95) [5, 9]: -48.31 (-180.1 – 83.47) Ohm/cm^2
- Δ TEER (CI95) ([5]; 48 h p.i., oseltamivir 1 µM, diltiazem 90 µM or both): 120.1 (-85.77 – 326.00) Ohm/cm^2
- Δ TEER (CI95) [5, 10]: -218.0 (255.6 – -180.4) Ohm/cm^2
- Δ TEER (CI95) ([5]; 72 h p.i., oseltamivir 1 µM, diltiazem 90 µM or both): -115.5 (-308.5 – 77.52) Ohm/cm^2
- Δ TEER (CI95) [5, 11]: -220.5 (-267.4 – -173.5) Ohm/cm^2
- TEER during the time-course of infection ([5]; oseltamivir 1 μM, diltiazem 90 μM or both): partially buffered the TEER decrease
- Treatment-induced toxicity (LDH release) [6]: absence of treatment-induced toxicity
